According to US4742062A, “Benzylpiperazine compound and pharmaceutical composition as hypolipidemic agent” (Kanebo, Ltd., priority 1985, dated 1988):
Entries after “also recorded” stand apart in the source; their conditions may differ.

What was measured:
rats (liver) = experiment: Test of hepatic toxicity in rats, weight of liver (Experiment 4); assay type: in vivo, Wistar male rats; details: for Weight of liver, mean ± S.E. / Percentage change of weight of liver: orally, once a day for 7 days; for Percentage change of weight of liver: vs untreated group
Description: Wistar male rats (weighing 100-130 g, one group: […]) were orally administered with a suspension of the test compound in 3 w/v % aqueous gum arabic solution once a day for 7 days. 24 hours after the final administration of the test compound, under light anesthesia with ether, the liver was taken out and the weight thereof was measured.
(§1) From the data thus obtained, a mean value (X) of the weight of liver in the no test compound-administering group and a mean value (Y) of the weight of liver in the test compound-administering group were calculated, and the significant difference between them was tested (t-test). From the resulting data, the percentage change of weight of liver in the test compound-administering group was calculated by the following equation. [formula]

[1] = system: hypercholesterolemic mice (plasma cholesterol); experiment: Blood cholesterol lowering activity in hypercholesterolemic mice (Experiment 3); assay type: in vivo, ddY male mice; details: for Plasma cholesterol level, mean ± S.E. / Percentage change of plasma cholesterol: orally, three times; for Percentage change of plasma cholesterol: vs untreated group
Text: (2) Test method: It was done by a method similar to that described in H. Ozawa, Screening of Pharmaceutical Activities for Development of New Drugs - Recent Movement and Practice, Vol. 1, 84-86, 1984 issued by […] Shoin (Tokyo). ddY male mice (weighing 10 - 12 g, one group: 10 mice) were fed with hypercholesterol feed [prepared by mixing CE-2 Feed (manufactured by CLEA JAPAN INC.) with cholesterol 1 w/w %, cholic acid 0.5 w/w % and sucrose 10 w/w %]. After 7 days from the starting of feeding with the hypercholesterol feed, and thereafter 6 hours and further 24 hours (totally three times), a suspension of the test compound in 3 w/v % aqueous gum arabic solution was orally administered. 3 hours after the final administration of the test compound, blood was collected from orbital vessel with hematocrit capillary (manufactured by TERUMO Corporation, treated with heparin). The blood was centrifuged at 10,000 r.p.m. for 2 minutes to collect blood plasma. The plasma cholesterol was measured in the same manner as described in Experiment 1. From the data thus obtained, a mean value (X) of the plasma cholesterol level in the no test compound-administering group and a mean value (Y) of the plasma cholesterol level in the test compound-administering group were calculated, and the significant difference between them was tested (t-test). From the resulting data, the percentage change of plasma cholesterol in the test compound-administering group was calculated by the following equation. [formula]

mice (liver) = experiment: Test of hepatic toxicity in mice, weight of liver (Experiment 5); assay type: in vivo, ddY male mice; details: for Weight of liver, mean ± S.E. / Percentage change of weight of liver: 7 days; for Percentage change of weight of liver: vs untreated group
Text: ddY male mice (weighing 21-23 g, one group: 10 mice) were fed with a mixture of the test compound with powdery feed CE-2 (manufactured by CLEA JAPAN INC.) for 7 days. When the mice fed with the feed mixed with the test compound (test compound-administering group) and the mice fed with the feed mixed with no test compound (no test compound-administering group) were compared as to the feed uptake amount and body weight, there was observed no difference between two groups. After feeding for 7 days, under light anesthesia with ether, the liver was taken out, and the weight thereof was measured.
as §1

[2] = system: mice fed with normal feed (serum cholesterol); experiment: Blood cholesterol lowering activity in mice fed with normal feed (Experiment 2); assay type: in vivo, ddY male mice; details: for Serum cholesterol level, mean ± S.E. / Percentage change of serum cholesterol: 7 days; for Percentage change of serum cholesterol: vs untreated group
Text: (2) Test method: It was done by a method similar to that of H. B. Right et al. (cf. H. B. Right et al., J. Med. Chem., Vol. 7, 113-115, 1964). ddY male mice (weighing 21-23 g, one group: 10 mice) were fed with a mixture of the test compound with powdery feed CE-2 (manufactured by CLEA JAPAN INC.) for 7 days. When the mice fed with the feed mixed with the test compound (test compound-administering group) and the mice fed with the feed mixed with no test compound (no test compound-administering group) were compared as to the feed uptake amount and body weight, there was observed no difference between two groups. After feeding for 7 days, under light anesthesia with ether, the femoral artery and vein were cut and blood was collected therefrom. The blood was centrifuged at 3,000 r.p.m. for 10 minutes to collect serum. The serum cholesterol was measured in the same manner as described in Experiment 1. From the data thus obtained, a mean value (X) of the serum cholesterol level in the no test compound-administering group and a mean value (Y) of the serum cholesterol level in the test compound-administering group were calculated, and the significant difference between them was tested (t-test). From the resulting data, the percentage change of serum cholesterol in the test compound-administering group was calculated by the following equation. [formula]

[3] = system: rats fed with normal feed (serum cholesterol); experiment: Blood cholesterol lowering activity in rats fed with normal feed (Experiment 1); assay type: in vivo, Wistar male rats; details: for Serum cholesterol level, mean ± S.E. / Percentage change of serum cholesterol: once a day for 7 days; for Percentage change of serum cholesterol: vs untreated group
Description: It was done by a method similar to that of A. V. Ginocchio et al. (cf. A. V. Ginocchio et al., Arzneim.Forsch./Drug Res., Vol. 30, 2032-2034, 1980).
Wistar male rats (weighing 100-130 g, one group: 6 rats) were administered with a suspension of the test compound in 3 w/v % aqueous gum arabic solution once a day for 7 days. 24 hours after the final administration of the test compound, under light anesthesia with ether, the femoral artery and vein were cut and blood was collected therefrom. The blood was centrifuged at 3,000 r.p.m. for 10 minutes to collect serum. The serum cholesterol was measured by an enzymatic method using an agent for measuring total cholesterol (Determiner® TC "5", manufactured by Kyowa Medex Co., Ltd.) (cf. Charles C. Allain et al., Clin. Chem., Vol. 20, 470-475, 1974).
From the data thus obtained, a mean value (X) of the serum cholesterol level in the group to which no test compound was administered and a mean value (Y) of the serum cholesterol level in the group to which the test compound was administered were calculated, and the significant difference between them was tested (t-test). From the resulting data, the percentage change of serum cholesterol in the test compound-administering group was calculated by the following equation. [formula]

[4] = result in words, dihydrochloride
[5] = dose per once 50 mg/kg, ** p < 0.01
[6] = dose per once 100 mg/kg, *** p < 0.001 (compound of this invention)
[7] = conc. of test compd. in feeds 0.0125%
[8] = conc. of test compd. in feeds 0.025%
[9] = conc. of test compd. in feeds 0.05%
[10] = conc. of test compd. in feeds 0.1%
[11] = normal feed, result in words, dihydrochloride

Cl.Cl.Clc1ccc(CN2CCN(CC=Cc3ccc(Cl)cc3Cl)CC2)cc1 [Compound of this invention, 1-(4-Chlorobenzyl)-4-(2,4-dichlorocinnamyl)-piperazine dihydrochloride]
Weight of liver, mean ± S.E. (rats (liver); dose per once 12.5 mg/kg): 4.77 ± 0.07 g/100 g of body weight | Percentage change of weight of liver (rats (liver); dose per once 12.5 mg/kg): -2.9% | Weight of liver, mean ± S.E. (rats (liver); dose per once 25 mg/kg): 4.93 ± 0.10 g/100 g of body weight | Percentage change of weight of liver (rats (liver); dose per once 25 mg/kg): +0.4% | Weight of liver, mean ± S.E. (rats (liver); dose per once 50 mg/kg): 5.05 ± 0.08 g/100 g of body weight | Percentage change of weight of liver (rats (liver); dose per once 50 mg/kg): +2.9% | Weight of liver, mean ± S.E. (rats (liver); dose per once 100 mg/kg): 5.17 ± 0.07 g/100 g of body weight | Percentage change of weight of liver (rats (liver); dose per once 100 mg/kg): +5.3% | change in the weight of liver (hepatic toxicity) (rats (liver); [4]): did not give any significant change in the weight of liver; also recorded: did not give any effect on the weight of liver | Plasma cholesterol level, mean ± S.E. ([1]; dose per once 25 mg/kg, ** p < 0.01): 313.1 ± 26.0 mg/dL | Percentage change of plasma cholesterol ([1]; dose per once 25 mg/kg): -29.8% | Plasma cholesterol level, mean ± S.E. [1, 5]: 314.5 ± 16.3 mg/dL | Percentage change of plasma cholesterol ([1]; dose per once 50 mg/kg): -29.5% | Plasma cholesterol level, mean ± S.E. [1, 6]: 256.0 ± 19.4 mg/dL | Percentage change of plasma cholesterol ([1]; dose per once 100 mg/kg): -42.6% | plasma cholesterol lowering activity in comparison with probucol [1, 4]: more potent plasma cholesterol lowering activity in comparison with the known probucol; also recorded: higher activities than those of probucol in all experiments | Weight of liver, mean ± S.E. (mice (liver); [7]): 6.80 ± 0.22 g/100 g of body weight | Percentage change of weight of liver (mice (liver); [7]): +7.1% | Weight of liver, mean ± S.E. (mice (liver); [8]): 6.63 ± 0.22 g/100 g of body weight | Percentage change of weight of liver (mice (liver); [8]): +4.4% | Weight of liver, mean ± S.E. (mice (liver); conc. of test compd. in feeds 0.05%, ** p < 0.01 (reference compound)): 6.86 ± 0.30 g/100 g of body weight | Percentage change of weight of liver (mice (liver); [9]): +8.0% | Weight of liver, mean ± S.E. (mice (liver); conc. of test compd. in feeds 0.1%, * p < 0.05 (reference compound)): 6.43 ± 0.42 g/100 g of body weight | Percentage change of weight of liver (mice (liver); [10]): +1.3% | change in the weight of liver (hepatic toxicity) (mice (liver); [4]): did not give any significant change in the weight of liver; also recorded: did not give any effect on the weight of liver | Serum cholesterol level, mean ± S.E. ([2]; conc. of test compd. in feeds 0.0125%, * p < 0.05): 130.7 ± 6.5 mg/dL | Percentage change of serum cholesterol [2, 7]: -13.0% | Serum cholesterol level, mean ± S.E. ([2]; conc. of test compd. in feeds 0.025%, *** p < 0.001): 121.0 ± 3.7 mg/dL | Percentage change of serum cholesterol [2, 8]: -19.4% | Serum cholesterol level, mean ± S.E. ([2]; conc. of test compd. in feeds 0.05%, *** p < 0.001): 62.9 ± 6.4 mg/dL | Percentage change of serum cholesterol [2, 9]: -58.1% | Serum cholesterol level, mean ± S.E. ([2]; conc. of test compd. in feeds 0.1%, *** p < 0.001): 31.7 ± 3.7 mg/dL | Percentage change of serum cholesterol [2, 10]: -78.9% | serum cholesterol lowering activity in comparison with probucol [2, 11]: more potent serum cholesterol lowering activity in comparison with the known probucol; also recorded: higher activities than those of probucol in all experiments | Serum cholesterol level, mean ± S.E. ([3]; dose per once 12.5 mg/kg): 67.1 ± 2.1 mg/dL | Percentage change of serum cholesterol ([3]; dose per once 12.5 mg/kg): -5.4% | Serum cholesterol level, mean ± S.E. ([3]; dose per once 25 mg/kg, *** p < 0.001): 62.8 ± 0.8 mg/dL | Percentage change of serum cholesterol ([3]; dose per once 25 mg/kg): -11.4% | Serum cholesterol level, mean ± S.E. [3, 5]: 64.4 ± 1.6 mg/dL | Percentage change of serum cholesterol ([3]; dose per once 50 mg/kg): -9.2% | Serum cholesterol level, mean ± S.E. [3, 6]: 44.6 ± 2.1 mg/dL | Percentage change of serum cholesterol ([3]; dose per once 100 mg/kg): -37.1% | serum cholesterol lowering activity in comparison with probucol [3, 11]: higher activities than those of probucol in all experiments; also recorded: more potent serum cholesterol lowering activity in comparison with the known probucol
